Source: US12116344B2, “Crystalline forms of a pharmaceutical compound” (Azafaros B.V., priority 2020, dated 2024)

Tests used:
[1] = Stability of the crystalline form (transition of Form 2 into Form 3); format: physicochemical; settings: Form 2 transitions into Form 3 above around 30° C. in about 1-5 min, or in solvent for more than 5 min at around 25° C.; listed as Form 3
Protocol: Alternatively, Form 2 transitioned into Form 3 upon equilibration in solvent (e.g. acetone) for more than 5 min at around 25° C.

[2] = Body weight of NPC mice, PND 11 to Week 9; format: in vivo
Protocol: Body weights and health status were recorded daily for the first week and later once a week.
24 NPC1 (−/−) mice (groups D to I) were treated per oral gavage (10 mL/kg) with AZ-3102-00 from post-natal day 11 (P11) to post-natal-day 70 (P70). Dosing will start at 1.5 mg/kg from P11 to P25, followed by 3 mg/kg from P26 to P70. Control mice included 6 NPC1 (−/−) and 4 NPC (+/−) mice treated with vehicle and 4 NPC (+/+) mice received AZ-3102-00 (groups A to C).
Graph represents the progress of body weights [g] per group measured daily during the first treatment week and weekly thereafter.

Calbindin-D28k = assay: Brain immunofluorescence of Calbindin-D28k (Purkinje cell marker); format: in vivo, mice
Protocol: Mouse right hemi-brains were fixed by immersion in freshly prepared 4% paraformaldehyde in PB (pH 7.4) for two hours at room temperature. Afterwards, hemispheres were transferred to 15% sucrose/PBS and stored at 4° C. until sunk to ensure cryoprotection. Tissue blocks were then trimmed as needed, transferred to cryomolds, embedded in OCT medium, frozen in dry ice-cooled isopentane and stored in an ultra-deep freezer (set at −80° C. target temperature).
Five consecutive cryosections were sagittally cut at 10 μm thickness on a Leica cryotome. The next 25 sections per level were discarded. This collection scheme was repeated for 12 levels and may have been modified to collect from the correct levels, e.g., if brains were smaller due to young age or genotype. In total 12×5=60 sections were collected. Sectioning levels were chosen according to the brain atlas of Paxinos and Franklin (“The Mouse Brain in Stereotaxic Coordinates”, 2nd edition, 2001). Collection of sections started at a level ˜0.2 mm lateral from midline and extend through the hemisphere to ensure systematic random sampling through the target regions (FIGS. 10 and 15). Sections were stored at −20° C. Almost the entire brain was sectioned, so the residual tissue block was disposed when all sections were collected.
For each incubation, a uniform systematic random set of five sections per mouse was selected (one section each from levels 2, 4, 6, 8, 10); for information on systematic random sampling follow this link: http://www.stereoloqy.info/sampling/ […]
Whole slide scans of the stained sections were recorded on a Zeiss automatic microscope AxioScan Z1 with high aperture lenses, equipped with a Zeiss Axiocam 506 mono and a Hitachi 3CCD HV-F202SCL camera and Zeiss ZEN 2.3 software.
Image analysis was done with Image Pro 10 (Media Cybernetics). […] Afterwards, immunofluorescence was quantitatively evaluated within the identified areas.
For quantification we used background correction if necessary and detect immunoreactive objects by adequate thresholding and morphological filtering (size, shape). […]

Hexb (−/−) mice = assay: Clinical signs in mice suffering from Sandhoff disease; format: in vivo; settings: initial data
Protocol: Mice suffering from Sandhoff disease were administered a therapeutically effective amount of AZ-3102.

[3] = molecular target: T1, non-lysosomal glucosylcerebrosidase (GbA2) (Homo sapiens, UniProt Q9HCG7); settings: stated in words only, no test described; cited from earlier work
T1 sequence (Q9HCG7 1-927): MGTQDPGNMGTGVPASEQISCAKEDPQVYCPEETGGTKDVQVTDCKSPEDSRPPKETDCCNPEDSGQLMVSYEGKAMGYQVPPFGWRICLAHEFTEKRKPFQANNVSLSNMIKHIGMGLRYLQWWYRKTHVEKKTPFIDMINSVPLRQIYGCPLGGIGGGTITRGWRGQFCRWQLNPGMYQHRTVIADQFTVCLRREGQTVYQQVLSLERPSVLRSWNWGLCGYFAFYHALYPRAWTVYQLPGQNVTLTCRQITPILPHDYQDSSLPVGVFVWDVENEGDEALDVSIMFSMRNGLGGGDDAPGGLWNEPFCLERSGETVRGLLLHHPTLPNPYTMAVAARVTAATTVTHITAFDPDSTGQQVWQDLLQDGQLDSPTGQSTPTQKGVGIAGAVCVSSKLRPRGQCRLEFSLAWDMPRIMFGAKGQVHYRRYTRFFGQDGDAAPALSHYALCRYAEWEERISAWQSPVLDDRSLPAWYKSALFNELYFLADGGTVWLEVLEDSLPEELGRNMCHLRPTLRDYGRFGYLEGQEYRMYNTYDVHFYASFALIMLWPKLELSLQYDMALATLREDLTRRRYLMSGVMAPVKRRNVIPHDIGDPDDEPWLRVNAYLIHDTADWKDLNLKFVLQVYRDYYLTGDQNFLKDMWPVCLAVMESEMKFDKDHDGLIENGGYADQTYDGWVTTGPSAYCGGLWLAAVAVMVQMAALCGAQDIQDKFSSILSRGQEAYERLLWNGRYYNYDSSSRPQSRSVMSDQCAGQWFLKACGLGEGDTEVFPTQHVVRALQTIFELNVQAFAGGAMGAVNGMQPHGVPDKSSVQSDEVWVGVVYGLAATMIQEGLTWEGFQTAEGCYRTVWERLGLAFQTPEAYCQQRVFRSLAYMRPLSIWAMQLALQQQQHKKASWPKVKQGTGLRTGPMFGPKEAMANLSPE

**Q.** Which results are given for `OC[C@H]1[C@@H](O)[C@H](O)[C@@H](O)CN1CCCCCOCc1ccc(-c2ccccc2)c(F)c1` [AZ-3102]?
**A.** Stability of the crystalline form [1]: better stability; Body weight gain of treated NPC (−/−) mice versus untreated NPC (−/−) mice ([2]; both genders, daily oral gavage P11-P70, PND 11 to Week 9): gained more than the NPC (−/−) untreated animals; General health as indicated by average percent body weight gains ([2]; daily oral gavage P11-P70, 1.5 mg/kg (P11-P25) then 3 mg/kg (P26-P70)): not impeded; Calbindin-D28k immunofluorescence in the cerebellum (Calbindin-D28k; NPC (−/−) mice, treated versus vehicle, all readouts): significantly increased; Calbindin-D28k immunofluorescence in the hippocampus (Calbindin-D28k; NPC mice, group comparison): no significant group differences; Cerebellar Purkinje cell loss (Calbindin-D28k; treated compared to vehicle treated NPC (−/−) mice, calbindin-D28k marker): significantly limited; Clinical signs of diseased animals (Hexb (−/−) mice): improved; Potency as inhibitor of GbA2 [3]: highly potent (nM)
